Measured values published in article PMC9535023, “Inhibition of phospholipase D1 induces immunogenic cell death and potentiates cancer immunotherapy in colorectal cancer” (Experimental & Molecular Medicine, 2022).

Legend:
DLD1 cells [1] = assay: In vitro phagocytosis assay, DLD1 cells with THP1 macrophages; format: cell-based; settings: CFSE-labeled CRC cells cocultured with PMA-activated THP1 macrophages, vs vehicle
DLD1 cells [2] = assay: Flow cytometry of CD44 and CD133; format: cell-based; settings: dose-dependent, mean fluorescence intensity
PLD1 = biological target: T1, PLD1 (Mus musculus, UniProt Q9Z280); assay: PLD1 activity in Pld2−/− MEFs; format: cell-based
T1 construct: endogenous in cells; host or cells: immortalized Pld2-/- mouse embryonic fibroblasts
T1 sequence (Q9Z280 1-1074): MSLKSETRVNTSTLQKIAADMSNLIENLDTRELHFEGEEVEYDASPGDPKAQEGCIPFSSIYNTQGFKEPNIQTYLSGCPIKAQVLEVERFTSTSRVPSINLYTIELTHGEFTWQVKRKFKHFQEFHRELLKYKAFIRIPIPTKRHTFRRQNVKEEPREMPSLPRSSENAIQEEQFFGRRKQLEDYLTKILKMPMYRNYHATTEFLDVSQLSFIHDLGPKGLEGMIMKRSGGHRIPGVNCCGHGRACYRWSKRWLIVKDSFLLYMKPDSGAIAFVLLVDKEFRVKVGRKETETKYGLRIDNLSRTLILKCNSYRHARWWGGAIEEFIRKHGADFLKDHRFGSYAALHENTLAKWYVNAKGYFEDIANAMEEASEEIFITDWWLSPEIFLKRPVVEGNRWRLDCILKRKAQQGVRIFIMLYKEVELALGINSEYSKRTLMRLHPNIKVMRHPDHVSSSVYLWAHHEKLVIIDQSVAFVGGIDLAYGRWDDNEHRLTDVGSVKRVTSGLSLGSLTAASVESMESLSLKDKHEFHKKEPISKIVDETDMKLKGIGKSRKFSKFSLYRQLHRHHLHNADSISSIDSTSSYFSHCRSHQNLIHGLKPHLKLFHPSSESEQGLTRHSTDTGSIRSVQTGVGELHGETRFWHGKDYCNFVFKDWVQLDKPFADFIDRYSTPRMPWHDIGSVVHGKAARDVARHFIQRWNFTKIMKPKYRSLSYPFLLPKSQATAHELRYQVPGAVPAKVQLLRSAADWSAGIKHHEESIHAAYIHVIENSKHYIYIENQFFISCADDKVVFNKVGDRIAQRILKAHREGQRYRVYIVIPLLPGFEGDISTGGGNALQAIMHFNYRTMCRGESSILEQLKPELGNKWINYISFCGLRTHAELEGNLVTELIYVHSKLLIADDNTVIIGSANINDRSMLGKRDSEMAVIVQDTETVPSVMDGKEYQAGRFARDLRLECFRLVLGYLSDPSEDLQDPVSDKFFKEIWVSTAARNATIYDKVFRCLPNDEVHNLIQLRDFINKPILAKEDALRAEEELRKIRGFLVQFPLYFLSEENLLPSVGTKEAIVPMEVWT
Experimental: Cells were labeled with [H^3] myristic acid, and PLD activity was assessed by measuring the formation of [H^3] phosphatidylbutanol, which is the product of PLD-mediated transphosphatidylation, in the presence of 1-butanol, as previously described.
We further investigated the effect of A3373 on the enzymatic inhibition of PLD1 and PLD2 in Pld^+/+, Pld1^−/−, and Pld2^−/− MEFs. […] Kinase profiling was used to evaluate the general selectivity of the lead compounds. […] To further investigate whether inhibition of PLD1 by A3373 occurs by binding to PLD1, we first modified A3373 by adding biotinylation instead of the F present in its structure and measured PLD activity.

MC38 cells = assay: MC38 syngeneic tumor model; format: in vivo, mouse
Experimental: manner. The incision was extended to 2–3 cm, and the cecum was exposed. 2 × 10^5 MC38-GFP-Luciferas e cells were suspended in 50 µL PBS and injected into the cecum. Seven days after cell injection, 10 mg/kg A3373 was orally administered to the mice daily for 4 weeks.
A colon can cer syngenei c model was established using 6- weeks-old C57B L/6 male mice. 2 × 10^5 MC38 cells were suspended in 50µ l PBS and subcutaneously injected into the flanks of the mice. After 7 days of cell injection, mice were randomized into four groups and all groups were treated as follows for 2 weeks: vehicle grou p, mice were IP administered vehicle every day; A3373 group, mice were IP administrated with 10 mg/kg A3373 every day; α PD-L1 antibody group, mice were IP administrated with 5 mg/kg anti-mouse PD-L1 (BioXcell) eve ry two days; A3373 + αPD-L1 antibody group, mice received A3373 (10 mg/kg) daily with anti - mouse PD-L1 (5 mg/kg) every 2 days. Tumor volume was measured in MC38 cells subcutaneous injected mice every 2 days after 7 days of cell injection. External tumor measurements were made using precision calipers, and tumor volume (TV) was calcul ated according to the following formula: TV = (W × L2)/2 (W = width and L = l ength).
. All animal procedu res were performed in accordance with the institutional guidelines for animal research and were approved by the Institutional Animal Care and Use Committee of Yonsei University (IACUC- […]
In a colon cancer orthotropic model, tumor-infiltrating lymphocytes (TILs) were isolated from the tumor tissue 30 days after cell injection. […]
After 20 minutes of incubation, 0.1 M EDTA was added to prevent clumping. Cells were filtered through a 40 µm nylon mesh, single-cell suspensions were counted and used for the experiments. […] Isolated tumor cells were cultured for one passage to change the immunocompromised phenotype and assessed using flow cytometry. […]

HCT116 cells = assay: miR-4496 promoter and β-catenin 3′-UTR luciferase reporters; format: cell-based
FHC cells = assay: Cell cycle analysis (BrdU/7-AAD flow cytometry), FHC; format: cell-based; settings: FHC normal fetal colonic mucosa cells
Experimental: For cell cycle analysis, the cells were treated with Α3373 or 5-FU. The cells were labeled with 10 μΜ bromodeoxyuridine (BrdU) for 2 h. Subsequently, the cells were stained with 7-aminoactinomycin D (7-AAD, Invitrogen) and a fluorescein isothiocyanate (FITC)-conjugated anti-BrdU antibody (Invitrogen). Apoptotic cells were detected using an Annexin V-FITC Apoptosis Detection Kit (BD Biosciences). The cells were analyzed using BD FACSAria III (BD Biosciences), and data analysis was performed using FlowJo v10.0 (BD Biosciences).

SMILES: O=C(Nc1cc(C(F)(F)F)cc(C(F)(F)F)c1)c1cc2cc(F)ccc2[nH]1 [Compound A3373]
- population of CD11b+CFSE+ macrophages, in words (DLD1 cells [1]): significantly increased the population of CD11b^+CFSE^+ macrophages
- expression of CD44 and CD133 (DLD1 cells [2]): significantly decreased the expression of CD44 and CD133
- PLD1 activity, in words (PLD1; 2 μM, Pld−/− MEFs): suppressed
- IC50 (PLD1; Pld2−/− MEFs): 325 nM
- tumor formation (MC38 cells; A3373 10 mg/kg and/or αPD-L1): significantly decreased tumor formation
- CD8+ T-cell-mediated killing of MC38-GFP-Luc cells, luciferase activity (MC38 cells; CD8+ T cells from treated tumor-bearing mice, increasing E/T ratio): significant reduction in luciferase activity
- percentage of immune cells (CD45+ cells) in total cells (MC38 cells; tumors at maximum volume, flow cytometry, vehicle ~20%): ~50%
- luciferase activity of the β-catenin 3′-UTR reporter (HCT116 cells): significantly suppressed the luciferase activity
- promoter activity of miR-4496 (HCT116 cells): increased the promoter activity of miR-4496
- cell cycle / S phase in FHC cells, in words (FHC cells): had no effect on FHC cells
